Experimental data as given in US6329395A, “Neuropeptide Y5 receptor antagonists” (Schering Corporation, priority 1999, dated 2001).

What follows are molecules tested against T1, neuropeptide Y5 receptor (Homo sapiens, UniProt Q15761) (assay: NPY Receptor Binding Assay (125I-peptide YY, CHO cell membranes, neuropeptide Y5 receptor)). Conditions: not given.
T1 construct: expressed in transfected cells; host or cells: CHO cells (membranes)
T1 sequence (Q15761 1-445): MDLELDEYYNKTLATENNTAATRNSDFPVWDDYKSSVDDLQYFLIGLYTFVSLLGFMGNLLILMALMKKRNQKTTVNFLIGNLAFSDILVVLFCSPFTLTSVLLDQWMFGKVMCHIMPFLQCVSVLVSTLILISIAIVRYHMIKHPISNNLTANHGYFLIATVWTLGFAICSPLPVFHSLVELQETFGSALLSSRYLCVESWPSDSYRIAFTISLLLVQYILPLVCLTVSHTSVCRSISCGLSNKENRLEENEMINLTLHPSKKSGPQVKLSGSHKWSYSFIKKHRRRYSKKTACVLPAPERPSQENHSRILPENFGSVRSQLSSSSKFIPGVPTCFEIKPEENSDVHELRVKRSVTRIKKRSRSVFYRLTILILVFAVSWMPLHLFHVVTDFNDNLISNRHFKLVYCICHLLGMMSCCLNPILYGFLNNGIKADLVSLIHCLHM
Description: Human NPY receptors were expressed in CHO cells. Binding assays were performed in 50 mM HEPES, pH. […] Non-specific binding was determined in the presence of 1 uM NPY. The reaction mixtures were incubated for 90 minutes at 30° C. (NPY1 receptor) or at room temperature (NPY2, NPY4 and NPY5 receptors), then filtered through Millipore MAFC glass fiber filter plates which had been pre-soaked in 0.5% polyethyleneimine. The filters were washed with phosphate-buffered saline, and radioactivity was measured in a Packard TopCount scintillation counter.

SMILES	Ki [nM]
CN(C)C(=O)Nc1ccc(SC(C)(C)C)cc1 [Example 1M]	152

Same assay, conditions: neuropeptide Y5 receptor binding; 0.1 nM 125I-peptide YY; room temperature, 90 minutes; pH 7.2; r/h Y5; read-out: r/h Y5 Ki

SMILES	Ki [nM]
CCCC(C)(C)Sc1ccc(NC(=O)C(C)(C)C)cc1 [Example 1]	3
CCCC(C)(C)Sc1ccc(NC(=O)NC2CCN(C)CC2)cc1 [Example 2Al]	697
CCCC(C)(C)Sc1ccc(NC(=O)N(C)CCCN(C)C)cc1 [Example 2X]	50
CCCC(C)(C)Sc1ccc(NC(=O)C(C)(C)C)cc1F [Example 3]	9
CCCC(C)(C)Oc1ccc(NC(=O)CC(C)(C)C)cc1 [Example 6C]	668
CCCCC1(Oc2ccc(NC(=O)N(C)c3ccccc3)cc2)CCCC1 [Example 6N]	66
CCCC(C)(C)Oc1ccc(NC(=O)C(C)(C)C)cc1 [Example 6]	13
CCCC(C)(C)Sc1ccc(NC(=O)C(C)(C)N2CCN(c3ccccc3)CC2)cc1 [Example 8D]	18
CCCC(C)(C)Sc1ccc(NC(=O)N(C)C2CCN(S(C)(=O)=O)CC2)cc1 [Example 13A]	0.8
CCC(C)(C)CCc1ccc(NC(=O)N(C)CCc2ccncc2)cc1 [Example 19]	0.4
